From patent US5660613A, “Anaerobic/aerobic decontamination of DDT contaminated soil by repeated anaerobic/aerobic treatments” (Zeneca Corp., priority 1995, dated 1997)

Key:
[1] = Fate of radiolabelled DDT in the soil system, aerobic / anaerobic / anaerobic then aerobic incubation (Table 1); settings: for % DDD (% remaining after tests) / % DDE (% remaining after tests) / % Other (% remaining after tests): from radiolabelled DDT; for % DDT (% remaining after tests): Triton X-100 500 ppm, 80640 min
From the text: This example compares the repeated anaerobic/aerobic sequence treatment method of the present invention with single anaerobic treatment and single aerobic treatment in the degradation of DDT in a soil system.
The soil in this example contains populations of >10^5 cfu/g viable aerobic and anaerobic microbes capable of rendering DDT-type contaminants harmless and being viable under both anaerobic and aerobic conditions. This soil contains DDT (200 ppm), DDD (22 ppm) and DDE (18 ppm).
Six 20 g samples of soil are each mixed with 25 ml of water containing 500 ppm each of cysteine and sulphite reducing agents and 500 ppm of "Triton"-X-100. To these slurries are added 1 ppm of radiolabelled 4,4'-DDT-ring UL C^14 in hexane. Two 20 g samples are incubated anaerobically (in 50-ml polypropylene tubes at 35° C., stationary);two 20 g samples are incubated aerobically (in rotating jars with foam plugs at 35° C., 150 rpm); and two 20 g samples are incubated on a 2 week anaerobic/2 week aerobic cycle for a total of 8 weeks.
Redox potential is monitored. After the aerobic phase redox is greater than +100 mV and after the anaerobic incubation redox potential is less than -200 mV.
The incubation samples are extracted, and the fate of the radiolabelled DDT is determined by thin layer chromatography and autoradiography/densitometry. The experiments are repeated to obtain average results.

[2] = Fate of radiolabelled DDT in the soil system with different surfactants, anaerobic/aerobic sequence (Table 2); settings: anaerobic/aerobic cycles, 35° C.; for % DDD (% remaining after tests) / % DDE (% remaining after tests) / % Other (% remaining after tests): from radiolabelled DDT; for % DDT (% remaining after tests): 80640 min
Description: The soil to be remediated contains populations of >10^5 cfu/g of viable aerobic and anaerobic microbes capable of rendering DDT-type contaminants harmless and being viable under both anaerobic and aerobic conditions. This soil contains DDT (200 ppm), DDD (22 ppm) and DDE (18 ppm). Six twenty gram samples of soil are added to 50-ml polypropylene tubes with 25 ml of water containing 500 ppm each of cysteine and sulphite reducing agents. This creates a supersaturated anaerobic degradation zone immersed in water. To each slurry sample is added 500 ppm of different surfactants and 1 ppm of radiolabelled 4,4'-DDT ring UL C^14 in hexane.
The tubes are capped and incubated stationary for 2 weeks at 35° C. After 2 weeks the tubes are opened and the contents are each transferred to a foam-capped jar and aerated by rotary incubation (150 rpm), for a further 2 weeks at 35° C. The anaerobic/aerobic cycle is repeated 2 times.
The samples are then extracted and the fate of the radiolabelled DDT is determined by thin layer chromatography and autoradiography/densitometry. The experiments are replicated to obtain average results.

[3] = Pilot scale anaerobic/aerobic cycling of DDT-contaminated soil (immersion), solvent extraction and GC ECD analysis; settings: after 16 weeks; one month immersed/drained cycles; 22° C. to 28° C.; initial DDT 728, DDD 87, DDE 50 ppm; 161280 min
Description: Three-quarters of a ton of soil that contains DDT (728 ppm), DDD (87 ppm) and DDE (50 ppm) is placed in an enclosed degradation zone box 8 foot by 8 foot by 18 inches. It is alternately immersed in water and drained on one month cycles. Sodium acetate nutrient (500 ppm) is added as required to maintain the COD above 300 mg/L, and a mixture of "Triton" X-100 and "DAWN" nonionic surfactants is added as required to maintain the surface tension in the leachate below 70 dynes/cm. The material is cultivated by hand weekly to aerate the degradation zone and render it aerobic during the drained phase. During the treatment, the temperature ranges from 22° C. to 28° C. The redox potential level in the treatment zone stays below negative 200 mV while immersed in water and above positive 100 mV while drained. While drained the water content of the soil is in the range of 40-100% WHC.
After 16 weeks 72% of the DDT, 31% of the DDD and 54% of the DDE is degraded, as measured by solvent extraction and GC ECD analysis.

[4] = Large scale anaerobic/aerobic repeated sequence, biopile technique; settings: after 16 weeks of cycling, weekly air on/off, 22° C. to 28° C., initial DDT 728, DDD 87, DDE 50 ppm, 161280 min
From the text: Eight tons of soil containing DDT (728 ppm), DDD (87 ppm) and DDE (50 ppm) is placed in an enclosed degradation zone box 8 foot by 8 foot by 8 feet. The soil is amended with 5% straw nutrient. Water is continuously dripped onto the surface of the soil to supersaturate, and the leachate is collected at the bottom and recycled at a rate of 20 to 100 L/tonne/day. Oxygenation is accomplished by passing air through a mechanical distribution system in the soil at the rate of 44 L/tonne/day, weekly alternating the air on and off. The temperatures of the soil during treatment range from 22° C. to 28° C. The redox potential level in the treatment zone stays below negative 200 mV when aeration is off and above positive 100 mV when aeration is on.
Sodium acetate nutrient is added as required to boost the COD to above 300 mg/L, and maintain population counts above 10^5 cfu/g, of anaerobic and aerobic bacteria; and surfactants (a mixture of "Triton" X-100 and "DAWN") is added as required to maintain surface tension below 70 dynes/cm measured in the leachate, which is recycled.

[5] = Aerobic, 35° C., 150 rpm, 8 weeks
[6] = Anaerobic then Aerobic, 2 week/2 week cycle, total 8 weeks
[7] = Anaerobic, 35° C., stationary, 8 weeks

With `Clc1ccc(C(c2ccc(Cl)cc2)C(Cl)Cl)cc1` [DDD, 1,1,dichloro-2,2-bis(p-chlorophenyl)ethane] the “% DDD (% remaining after tests)” value [1, 5] was 17%, the “% DDD (% remaining after tests)” value [1, 6] was 60% and the “% DDD (% remaining after tests)” value [1, 7] was 30%. The “% DDD (% remaining after tests)” value ([2]; "Dawn" 500 ppm) was 75%, the “% DDD (% remaining after tests)” value ([2]; "Triton" X-100 500 ppm) was 40% and the “% DDD (% remaining after tests)” value ([2]; No Surfactant) was 15%. The “% degraded” value [3] was 31% and the “% degraded” value [4] was 55%.
In the case of `ClC(Cl)=C(c1ccc(Cl)cc1)c1ccc(Cl)cc1` [DDE, 2,2-bis(p-chlorophenyl)1,1-dichloroethylene], the “% DDE (% remaining after tests)” value [1, 5] is reported as 2%, the “% DDE (% remaining after tests)” value [1, 6] is reported as “trace” and the “% DDE (% remaining after tests)” value [1, 7] is reported as 0%. The “% DDE (% remaining after tests)” value ([2]; "Dawn" 500 ppm) was “trace”, the “% DDE (% remaining after tests)” value ([2]; "Triton" X-100 500 ppm) was “trace” and the “% DDE (% remaining after tests)” value ([2]; No Surfactant) was 0%. The “% degraded” value [3] was 54% and the “% degraded” value [4] was 54%.
With `Clc1ccc(C(c2ccc(Cl)cc2)C(Cl)(Cl)Cl)cc1` [DDT, 1,1,1-trichloro-2,2-bis(p-chlorophenyl)ethane] the “% DDT (% remaining after tests)” value [1, 5] was 80%, the “% Other (% remaining after tests)” value [1, 5] was 1% and the “% DDT (% remaining after tests)” value [1, 6] was 10%. The “% Other (% remaining after tests)” value [1, 6] was 30%, the “% DDT (% remaining after tests)” value [1, 7] was 60% and the “% Other (% remaining after tests)” value [1, 7] was 10%. For the same molecule, the “% DDT (% remaining after tests)” value ([2]; "Dawn" 500 ppm) was 10%, the “% Other (% remaining after tests)” value ([2]; "Dawn" 500 ppm) was 15% and the “% DDT (% remaining after tests)” value ([2]; "Triton" X-100 500 ppm) was 0%. The “% Other (% remaining after tests)” value ([2]; "Triton" X-100 500 ppm) was 60%, the “% DDT (% remaining after tests)” value ([2]; No Surfactant) was 85% and the “% Other (% remaining after tests)” value ([2]; No Surfactant) was 0%. For the same molecule, the “% degraded” value [3] was 72% and the “% degraded” value [4] was 53%.
